Assay results: patent publication US20250176553A1, “SOLUTION FOR […] AND METHOD OF PRODUCING THEREOF” (OCT, Inc., priority 2022, published 2025)
Several values for one entry are separate records, joined by “and”; a condition that tells them apart may be missing. Identical values can stand only once. Like-named read-outs stand apart in the source and are kept apart here.

What was measured:
hibiscus leaf = details: adjusted to pH 0.5; leaf surface wetted, observed after 20 hours
Description: A hibiscus leaf was divided into left and right halves by the central vein. […] The surfaces of the half leaves were observed after 20 hours.

[1] = test system: Streptococcus mutans biofilms; details: for Absorbance, Average value: average of samples 1-6; for Absorbance, Average value / Absorbance: 590 nm; for Absorbance: individual samples 1-6, 24 hours culture
From the text: (§1) FIGS. 3 to 6 show the experimental results in which Streptococcus mutans strains are actually used. Streptococcus mutans is a facultative anaerobe and a gram-positive streptococcus. It produces insoluble, sticky glucans that stick to tooth surfaces. It is one of the bacteria that mainly cause dental caries. THB (TODD-HEWITT BROTH) supplemented with 2% (w/v) sucrose was used as the medium. Sucrose is a sugar composed of the monosaccharides glucose and fructose with an α-1,2-glycosidic linkage and one of the disaccharides. THB manufactured by Becton, Dickinson and Company was used. For sucrose, “CASRN” manufactured by FUJIFILM Wako Pure Chemical Corporation was used. The plate used for culture was a Thermo Scientific Nunclon Delta Surface 96 well. The incubator used was a Panasonic multi-gas incubator MCO-5MUV-PJ. Culturing was conducted at 37° C. under an atmosphere of 5% CO2 gas, 5% O2 gas and 90% N2 gas.
(§2) Devices and the like used to measure residual biofilms are described below. For staining, 0.1% Crystal Violet from FUJIFILM Wako Pure Chemical Corporation was used. It was dissolved in distilled water to 0.1% (w/v).
(§3) Life Technologies EVOS XL Core was used as the microscope for photography. […] Co., Ltd. was used as the absorption spectrometer. The data processing software was “SF6” and the absorbance wavelength was 590 nm.
Streptococcus mutans was diluted in 2% sucrose-containing THB and 10 inoculated samples of 100 μL each were plated onto cell culture plates (Thermo Scientific Nunclon Delta Surface 96well). […] No test solution was added to one of the 10 inoculated samples.
The samples were then cultured in a multi-gas incubator for 24 hours to allow biofilms to form on the bottom of each plate. After culturing, the plates were washed with distilled water and stained with 0.1% Crystal Violet solution for 10 minutes. After staining, the plates were washed again with distilled water, dried and then observed and photographed with a bright field inverted microscope.
(§4) Crystal Violet was then extracted with 100 μL of 99.5% ethanol (FUJIFILM Wako Pure Chemical Corporation), and the absorbance was measured at a wavelength of 590 nm using an absorption spectrometer grating microplate reader.

[2] = test system: Streptococcus mutans biofilms; details: for Absorbance, Average value: average of samples 1-6, 590 nm; for Absorbance trend: FIG. 5
From the text: as §1, §2, §3
(§5) Streptococcus mutans was diluted in 2% sucrose-containing THB and 10 inoculated samples of 100 μL each were plated onto cell culture plates (Thermo Scientific Nunclon Delta Surface 96well). The samples were then cultured in a multi-gas incubator for 24 hours to allow biofilms to form on the bottom of each plate.
The samples were further cultured in a multi-gas incubator for 24 hours. After culturing, the plates were washed with distilled water and stained with 0.1% Crystal Violet solution for 10 minutes. After staining, the plates were washed again with distilled water, dried and then observed and photographed using a bright field inverted microscope.
as §4

[3] = test system: Streptococcus mutans biofilms; details: for Absorbance, Average value: average of samples 1-6; for Absorbance: individual samples 1-6, medium replaced after biofilm formation, further 24 hours
From the text: as §1, §2, §3, §5
The media were removed and the plates were washed with distilled water 24 hours after the start of cultivation. […] The samples were further cultured in a multi-gas incubator for 24 hours. After culturing, the plates were washed with distilled water and stained with 0.1% Crystal Violet solution for 10 minutes. After staining, the plates were washed again with distilled water, dried and then observed and photographed using a bright field inverted microscope.

Fn bacteria biofilms = details: for Absorbance, Average value: average of samples 1-5
Description: THB (TODD-HEWITT BROTH) supplemented with 2% (w/v) sucrose was used as the medium. Sucrose is a sugar composed of the monosaccharides glucose and fructose with an α-1,2-glycosidic linkage and one of the disaccharides. THB manufactured by Becton, Dickinson and Company was used. For sucrose, “CASRN” manufactured by FUJIFILM Wako Pure Chemical Corporation was used. The plate used for culture was a Thermo Scientific Nunclon Delta Surface 96 well. The incubator used was a Panasonic multi-gas incubator MCO-5MUV-PJ. Culturing was conducted at 37° C. under an atmosphere of 5% CO2 gas, 5% O2 gas and 90% N2 gas.
Fn bacteria were diluted in 2% sucrose-containing THB and 10 inoculated samples of […] each were plated onto cell culture plates (Thermo Scientific Nunclon Delta Surface 96well). […] No test solution was added to one of the […] inoculated samples.
The samples were then cultured in a multi-gas incubator for 24 hours to allow biofilms to form on the bottom of each plate. After culturing, the plates were washed with distilled water and stained with 0.1% Crystal Violet solution for 10 minutes. After staining, the plates were washed with distilled water again and dried.
as §4

[4] = for Viscosity: 4 cc added to 150 g test sample, 25° C.
Description: The starch syrup used was manufactured by KATO SANGYO CO., LTD. (product name “Kanpy starch syrup”) and the vegetable jelly used was from COOP (manufacturer: Ina Food Industry Co., Ltd.) (product name “Coop Agar”).
Solutions for destroying biofilms adjusted to various pH values and a test solution were added to test mixtures of starch syrup and Coop Agar and the viscosity of each mixture was measured. Viscosity was measured using a “Viscotester (high viscosity type) VT-06” manufactured by RION Co., Ltd.
First, starch syrup and Coop Agar were mixed in a beaker at a ratio of 34 to 5 and the viscosity was measured with a Viscotester (high viscosity type) VT-06. […] The mixture of starch syrup and Coop Agar to be used for the test (test sample) was prepared weighing 150 grams. […] To 150 g of the test sample, 4 cc of the test solution was added and the measurement was performed with a Viscotester (high viscosity type) VT-06. The room temperature was 25° C. and humidity was 63% when the test was conducted.

Q: With [2H]OS(=O)(=O)O[2H] [deuterated sulfuric acid (D2SO4)] as the molecule, how does the “Leaf surface damage (white spotted areas, dead leaf cells)” value (hibiscus leaf) read?
A: the white spotted areas surrounded by dotted lines are significantly smaller

Q: And the “Colour of stained plate (photograph, remaining biofilm)” value ([1]; pH 0.8, 1.2 and 1.5, FIG. 3 upper panel)?
A: biofilm formation is significantly inhibited and destroyed

Q: What about the “Absorbance, Average value” ([1]; pH 0.8) of the same molecule?
A: 0.089

Q: And the Absorbance ([1]; pH 0.8)?
A: 0.089 (3×) and 0.090 (2×) and 0.088

Q: What about the “Absorbance, Average value” ([1]; pH 1.2) of the same molecule?
A: 0.096

Q: What about the “Absorbance, Average value” ([1]; pH 1.5) of the same molecule?
A: 0.100

Q: What about the Absorbance ([1]; pH 2.3) of the same molecule?
A: 0.734

Q: What about the Absorbance ([1]; pH 3.3) of the same molecule?
A: 0.876

Q: What about the Absorbance ([1]; pH 3.7) of the same molecule?
A: 0.874

Q: What about the Absorbance ([1]; pH 4.0) of the same molecule?
A: 0.733

Q: What about the “Biofilm formation from absorbance trend” value ([1]; pH value below 2.3, FIG. 4) of the same molecule?
A: almost no biofilm was formed

Q: What about the “Colour of stained plate (photograph, remaining biofilm)” value ([2]; lower pH values, FIG. 3 middle panel) of the same molecule?
A: more biofilms were destroyed

Q: What about the “Absorbance, Average value” ([2]; pH 0.8) of the same molecule?
A: 0.678

Q: And the “Absorbance, Average value” ([2]; pH 1.2)?
A: 1.164

Q: What about the “Absorbance, Average value” ([2]; pH 1.5) of the same molecule?
A: 1.250

Q: What about the “Absorbance, Average value” ([2]; pH 2.3) of the same molecule?
A: 1.288

Q: And the “Absorbance, Average value” ([2]; pH 2.7)?
A: 1.375

Q: What about the “Absorbance, Average value” ([2]; pH 3.0) of the same molecule?
A: 1.457

Q: What about the “Absorbance, Average value” ([2]; pH 3.3) of the same molecule?
A: 1.226

Q: And the “Absorbance, Average value” ([2]; pH 3.7)?
A: 1.354

Q: And the “Absorbance, Average value” ([2]; pH 4.0)?
A: 1.346

Q: What about the Absorbance trend ([2]; pH value below 1.5) of the same molecule?
A: absorbance decreased rapidly

Q: And the Absorbance trend ([2]; pH value below 3.0)?
A: absorbance decreased gradually

Q: And the “Colour of stained plate (photograph, remaining biofilm)” value ([3]; lower pH values, FIG. 3 lower panel)?
A: more biofilms were destroyed

Q: What about the “Absorbance, Average value” ([3]; pH 0.5) of the same molecule?
A: 0.590

Q: What about the Absorbance ([3]; pH 0.5) of the same molecule?
A: 0.438 and 0.570

Q: What about the “Absorbance, Average value” ([3]; pH 0.8) of the same molecule?
A: 0.729

Q: What about the Absorbance ([3]; pH 0.8) of the same molecule?
A: 0.649 and 0.678

Q: What about the Absorbance ([3]; pH 1.2) of the same molecule?
A: 0.948 and 0.729 and 0.723

Q: What about the “Absorbance, Average value” ([3]; pH 2.0) of the same molecule?
A: 0.989

Q: And the Absorbance ([3]; pH 2.0)?
A: 0.951 and 0.966 and 0.921

Q: What about the “Absorbance, Average value” ([3]; pH 2.3) of the same molecule?
A: 1.083

Q: What about the Absorbance ([3]; pH 2.3) of the same molecule?
A: 1.091 and 1.052 and 1.038

Q: What about the “Absorbance, Average value” ([3]; pH 2.7) of the same molecule?
A: 1.098

Q: What about the Absorbance ([3]; pH 2.7) of the same molecule?
A: 1.167 and 1.149 and 1.070

Q: And the “Absorbance, Average value” ([3]; pH 3.0)?
A: 1.038

Q: And the Absorbance ([3]; pH 3.0)?
A: 1.036 and 1.113

Q: And the “Absorbance, Average value” ([3]; pH 3.3)?
A: 1.113

Q: And the Absorbance ([3]; pH 3.3)?
A: 1.044 and 1.117 and 1.054

Q: What about the “Absorbance, Average value” ([3]; pH 3.7) of the same molecule?
A: 1.107

Q: What about the Absorbance ([3]; pH 3.7) of the same molecule?
A: 1.157 and 1.116 and 1.040

Q: What about the “Biofilm destruction from absorbance trend” value ([3]; pH below 2.0, FIG. 6) of the same molecule?
A: biofilms are destroyed

Q: And the “Absorbance, Average value” (Fn bacteria biofilms; pH 0.5, 590 nm)?
A: 0.123

Q: And the Absorbance (Fn bacteria biofilms; pH 0.5, individual samples 1-5, 590 nm, 24 hours culture)?
A: 0.123 (2×) and 0.124 (2×) and 0.122

Q: And the “Absorbance, Average value” (Fn bacteria biofilms; pH 2.0, 590 nm)?
A: 0.320

Q: What about the “Absorbance, Average value” (Fn bacteria biofilms; pH 3.0, 590 nm) of the same molecule?
A: 0.386

Q: And the “Absorbance, Average value” (Fn bacteria biofilms; pH 4.0, 590 nm)?
A: 0.425

Q: What about the “Absorbance, Average value” (Fn bacteria biofilms; pH 5.0, 590 nm) of the same molecule?
A: 0.441

Q: And the “Absorbance, Average value” (Fn bacteria biofilms; pH 6.0, 590 nm)?
A: 0.465

Q: What about the “Biofilm formation from absorbance trend” value (Fn bacteria biofilms; pH value below 4.5, compared to pH 6.0, FIG. 7) of the same molecule?
A: biofilm formation was made more difficult

Q: And the “Viscosity reduction compared to pH 7.0” value ([4]; pH 0.5)?
A: ⅓

Q: What about the Viscosity ([4]; test solution pH 0.5) of the same molecule?
A: 130 dPa · s

Q: What about the Viscosity ([4]; test solution pH 2.0) of the same molecule?
A: 150 dPa · s

Q: What about the Viscosity ([4]; test solution pH 3.0) of the same molecule?
A: 180 dPa · s

Q: What about the Viscosity ([4]; test solution pH 4.0) of the same molecule?
A: 210 dPa · s

Q: And the Viscosity ([4]; test solution pH 5.0)?
A: 240 dPa · s

Q: And the Viscosity ([4]; test solution pH 6.0)?
A: 310 dPa · s

Q: Which “Leaf surface damage (white spotted areas, dead leaf cells)” value (hibiscus leaf) does the source give for O=S(=O)(O)O [sulfuric acid (H2SO4), reference compound] here?
A: areas where leaf cells are dead
